Data from ChEMBL document CHEMBL1926609, “Synthesis of 9-phosphonoalkyl and 9-phosphonoalkoxyalkyl purines: evaluation of their ability to act as inhibitors of Plasmodium falciparum, Plasmodium vivax and human hypoxanthine-guanine-(xanthine) phosphoribosyltransferases” (Bioorg Med Chem, 2012).
pKi: −log10 of the molar value.

Key:
[1] = Inhibition of Plasmodium falciparum HGXPRT
[2] = molecular target: T1, Hypoxanthine-guanine phosphoribosyltransferase (Homo sapiens, UniProt P00492); test: Inhibition of human HGPRT
T1 sequence (P00492 whole entry): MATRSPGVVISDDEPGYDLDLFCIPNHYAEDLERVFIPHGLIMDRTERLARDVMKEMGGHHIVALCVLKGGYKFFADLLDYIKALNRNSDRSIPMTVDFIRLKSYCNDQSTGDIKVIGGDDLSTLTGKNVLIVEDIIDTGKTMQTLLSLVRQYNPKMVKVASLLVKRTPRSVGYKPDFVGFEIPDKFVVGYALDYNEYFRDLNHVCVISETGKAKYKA

[3] = Inhibition of Plasmodium vivax HGPRT

SMILES	pKi [2]	pKi [1]	pKi [3]
O=P(O)(O)CCCCCn1cnc2c(O)ncnc21	< 4.00	4.68	
Nc1nc2c(ncn2CCP(=O)(O)O)c(=O)[nH]1	< 4.00	< 4.00	< 4.00
Nc1nc2c(ncn2CP(=O)(O)O)c(=O)[nH]1	< 4.00	< 4.00	< 4.00
Nc1nc2c(ncn2CCCP(=O)(O)O)c(=O)[nH]1	< 4.00	< 4.00	< 4.00
O=c1[nH]cnc2c1ncn2CCCP(=O)(O)O	< 4.00	< 4.00	< 4.00
O=c1[nH]cnc2c1ncn2CCCCP(=O)(O)O	< 4.00	< 4.00	< 4.00
O=c1[nH]cnc2c1ncn2CCCCCCP(=O)(O)O	4.11	4.01	
O=c1[nH]cnc2c1ncn2CCCCCCCP(=O)(O)O	< 4.00	< 4.00	< 4.00

The next molecules have a higher pKi [2] than those just listed; values first:

pKi [2]	SMILES	pKi [1]	pKi [3]
5.30	Nc1nc(O)c2ncn(CCCCCCCP(=O)(O)O)c2n1	5.00	
6.40	Nc1nc(O)c2ncn(COCCCCP(=O)(O)O)c2n1	3.70	< 4.00
5.72	O=c1[nH]cnc2c1ncn2CP(=O)(O)O	< 4.00	< 4.00
5.47	O=c1[nH]cnc2c1ncn2CCP(=O)(O)O	5.66	< 4.00
4.25	O=c1[nH]cnc2c1ncn2COCCP(=O)(O)O	4.60	4.52
5.52	Nc1nc2c(ncn2COCCCP(=O)(O)O)c(=O)[nH]1	5.17	6.00
6.30	Nc1nc2c(ncn2CCCCCCP(=O)(O)O)c(=O)[nH]1	< 4.00	< 4.00
4.55	O=c1[nH]cnc2c1ncn2COCCCCP(=O)(O)O	4.54	
4.68	Nc1nc(O)c2ncn(CCCCP(=O)(O)O)c2n1	< 4.00	< 4.00
4.51	Nc1nc(O)c2ncn(COCCP(=O)(O)O)c2n1	5.30	4.62
6.30	Nc1nc(O)c2ncn(CCCCCP(=O)(O)O)c2n1	5.70	5.22
